Among the test systems are HS 578T breast; U251 CNS; BT-549 breast; SK-MEL-5 melanoma; NCI-H522 lung; MDA-MB-231 breast; DU-145 prostate; SN12C renal; HCC-2998 colon; LOX IMVI melanoma.
Holding throughout (assay): DTP human tumour cell line panel, 48 h

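48-hour exposure; five concentrations; linearly interpolated endpoints. GI50 = concentration required for 50% inhibition of growth. TGI is the concentration that stops growth completely.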 Some results are limits rather than exact numbers.

On to `CCS(=O)(=O)c1ccc(OC)c(Nc2ncc(-c3cccc(C(C)=O)c3)o2)c1`, for which the GI50 with HS 578T breast was 5.88 µM; in the experiment with U251 CNS, 19.7 µM; in the experiment with BT-549 breast it was 20.4 µM; with SK-MEL-5 melanoma, > 25 µM; in the experiment with NCI-H522 lung it was 11 µM; in the experiment with MDA-MB-231 breast it was 7.73 µM. Also, the GI50 in the experiment on DU-145 prostate was > 25 µM; in the experiment on SN12C renal, 14 µM; with HCC-2998 colon, > 25 µM; in the experiment on LOX IMVI melanoma, 10.4 µM. For the same molecule, the TGI with HS 578T breast, in the experiment on U251 CNS, in the experiment on BT-549 breast, in the experiment on SK-MEL-5 melanoma, with NCI-H522 lung and in the experiment on MDA-MB-231 breast was > 25 µM each time. The TGI in the experiment on DU-145 prostate, in the experiment on SN12C renal, in the experiment with HCC-2998 colon and in the experiment with LOX IMVI melanoma was > 25 µM throughout.

For `CN/N=C(/CCN1CCCC1)CC(c1ccccc1)c1c(O)c2ccccc2oc1=O` (stereo not given), the TGI in the experiment with HS 578T breast, in the experiment on U251 CNS, with BT-549 breast, in the experiment on SK-MEL-5 melanoma, in the experiment on NCI-H522 lung and with MDA-MB-231 breast was > 100 µM each time. Further, the TGI in the experiment on DU-145 prostate, in the experiment on SN12C renal, in the experiment on HCC-2998 colon and in the experiment on LOX IMVI melanoma was > 100 µM throughout.

By GI50 is commonly meant the concentration that inhibits growth by half. A word on the TGI: it is the concentration at which net growth stops. A higher TGI goes with less potent growth arrest.

For the origin of these results see PubChem BioAssay (NCI).
